Results as given in ChEMBL document CHEMBL2390894, “Quantitative analysis of histone demethylase probes using fluorescence polarization” (J Med Chem, 2013).
Activity calls are given as the source filed them. The rule behind the calls is not given here.

Assays:
[1] = biological target: T1, Lysine-specific demethylase 4A (Homo sapiens, UniProt O75164); assay: Inhibition of JMJD2A (unknown origin)
T1 sequence (O75164 whole entry): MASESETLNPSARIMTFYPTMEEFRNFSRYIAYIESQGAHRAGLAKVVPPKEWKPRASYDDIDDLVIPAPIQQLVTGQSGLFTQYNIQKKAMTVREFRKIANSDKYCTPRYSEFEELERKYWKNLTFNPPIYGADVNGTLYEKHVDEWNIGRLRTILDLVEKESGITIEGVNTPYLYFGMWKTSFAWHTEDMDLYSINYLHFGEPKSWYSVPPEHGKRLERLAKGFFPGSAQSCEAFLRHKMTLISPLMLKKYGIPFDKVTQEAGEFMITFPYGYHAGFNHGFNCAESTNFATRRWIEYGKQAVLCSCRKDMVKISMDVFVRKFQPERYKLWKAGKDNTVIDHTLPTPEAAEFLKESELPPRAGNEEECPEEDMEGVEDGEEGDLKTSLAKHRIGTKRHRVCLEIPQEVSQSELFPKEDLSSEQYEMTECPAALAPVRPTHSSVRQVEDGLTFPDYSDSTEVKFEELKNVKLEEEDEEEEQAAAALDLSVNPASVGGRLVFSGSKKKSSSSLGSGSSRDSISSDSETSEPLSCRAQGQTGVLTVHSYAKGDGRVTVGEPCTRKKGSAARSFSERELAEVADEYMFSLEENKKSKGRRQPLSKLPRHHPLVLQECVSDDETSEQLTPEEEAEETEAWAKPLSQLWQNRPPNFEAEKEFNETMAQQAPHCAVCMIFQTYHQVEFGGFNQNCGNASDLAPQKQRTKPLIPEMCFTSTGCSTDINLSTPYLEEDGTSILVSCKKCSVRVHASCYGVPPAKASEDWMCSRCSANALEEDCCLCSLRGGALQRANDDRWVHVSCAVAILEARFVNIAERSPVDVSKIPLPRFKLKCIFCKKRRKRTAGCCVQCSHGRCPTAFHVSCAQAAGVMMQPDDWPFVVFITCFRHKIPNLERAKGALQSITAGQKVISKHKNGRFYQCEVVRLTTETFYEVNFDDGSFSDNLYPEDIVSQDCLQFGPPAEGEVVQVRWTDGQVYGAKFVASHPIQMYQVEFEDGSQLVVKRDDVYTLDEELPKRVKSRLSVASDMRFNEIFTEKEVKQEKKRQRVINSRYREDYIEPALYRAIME

[2] = biological target: T2, Lysine-specific demethylase 6B (Homo sapiens, UniProt O15054); assay: Inhibition of recombinant 6xHis-tagged JMJD3 (unknown origin) expressed in Escherichia coli BL21
[3] = biological target: T3, Lysine-specific demethylase 2A (Homo sapiens, UniProt Q9Y2K7); assay: Inhibition of recombinant 6xHis-tagged JHDM1A (unknown origin) expressed in Escherichia coli BL21 using SAPATGGVK(Me2)KPHRYRPGTVAL as substrate incubated for 15 mins prior to substrate addition measured after 50 mins by rapid fire mass spectrophotometric analysis
T3 sequence (Q9Y2K7 whole entry): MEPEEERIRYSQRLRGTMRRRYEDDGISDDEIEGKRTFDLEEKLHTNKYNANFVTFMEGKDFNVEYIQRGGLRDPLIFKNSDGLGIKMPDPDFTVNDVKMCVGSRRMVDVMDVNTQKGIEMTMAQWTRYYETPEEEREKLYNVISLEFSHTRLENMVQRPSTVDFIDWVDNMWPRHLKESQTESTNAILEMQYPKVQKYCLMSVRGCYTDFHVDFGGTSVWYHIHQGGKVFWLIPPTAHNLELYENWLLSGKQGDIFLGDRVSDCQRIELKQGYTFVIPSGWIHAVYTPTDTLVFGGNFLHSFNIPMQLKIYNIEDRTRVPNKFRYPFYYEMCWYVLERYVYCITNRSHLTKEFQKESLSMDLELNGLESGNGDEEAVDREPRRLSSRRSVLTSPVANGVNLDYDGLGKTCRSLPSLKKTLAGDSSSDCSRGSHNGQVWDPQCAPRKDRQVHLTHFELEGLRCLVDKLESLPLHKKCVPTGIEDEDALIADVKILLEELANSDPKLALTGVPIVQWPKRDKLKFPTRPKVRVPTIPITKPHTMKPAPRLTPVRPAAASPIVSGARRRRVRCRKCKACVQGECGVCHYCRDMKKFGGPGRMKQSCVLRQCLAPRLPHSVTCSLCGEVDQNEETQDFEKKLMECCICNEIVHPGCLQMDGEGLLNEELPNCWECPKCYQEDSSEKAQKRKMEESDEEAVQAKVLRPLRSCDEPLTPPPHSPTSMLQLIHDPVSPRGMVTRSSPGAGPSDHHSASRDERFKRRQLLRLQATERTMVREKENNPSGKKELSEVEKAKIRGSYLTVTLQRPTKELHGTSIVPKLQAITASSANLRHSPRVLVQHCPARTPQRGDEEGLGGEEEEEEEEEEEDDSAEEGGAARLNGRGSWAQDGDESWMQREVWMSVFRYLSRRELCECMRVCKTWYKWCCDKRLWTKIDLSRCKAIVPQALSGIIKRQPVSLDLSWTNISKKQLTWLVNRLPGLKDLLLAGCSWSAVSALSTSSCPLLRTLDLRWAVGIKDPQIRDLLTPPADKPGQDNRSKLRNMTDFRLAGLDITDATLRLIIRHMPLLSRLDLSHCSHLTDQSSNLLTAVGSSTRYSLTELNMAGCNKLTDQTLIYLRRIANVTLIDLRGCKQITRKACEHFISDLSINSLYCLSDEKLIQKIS

[4] = biological target: T2, Lysine-specific demethylase 6B; assay: Binding affinity to recombinant 6xHis-tagged JMJD3 (unknown origin) expressed in Escherichia coli BL21 up to 10 uM by fluorescence polarization assay
[5] = biological target: T3, Lysine-specific demethylase 2A; assay: Binding affinity to recombinant 6xHis-tagged JHDM1A (unknown origin) expressed in Escherichia coli BL21 by fluorescence polarization assay in presence of Ni2+
[6] = biological target: T3, Lysine-specific demethylase 2A; assay: Binding affinity to recombinant 6xHis-tagged JHDM1A (unknown origin) expressed in Escherichia coli BL21 by fluorescence polarization assay
[7] = biological target: T3, Lysine-specific demethylase 2A; assay: Binding affinity to recombinant 6xHis-tagged JHDM1A (unknown origin) expressed in Escherichia coli BL21 by fluorescence polarization assay in presence of Fe2+ and sodium ascorbate
[8] = biological target: T3, Lysine-specific demethylase 2A; assay: Binding affinity to recombinant 6xHis-tagged JHDM1A (unknown origin) expressed in Escherichia coli BL21 by fluorescence polarization assay in presence of Co2+
[9] = biological target: T4, Lysine-specific demethylase 4A (Homo sapiens) (UniProt O75164); assay: Binding affinity to JMJD2A (unknown origin) up to 10 uM by fluorescence polarization assay
T4 sequence (whole entry): T1 sequence (O75164 whole entry)

T2 sequence (O15054 whole entry): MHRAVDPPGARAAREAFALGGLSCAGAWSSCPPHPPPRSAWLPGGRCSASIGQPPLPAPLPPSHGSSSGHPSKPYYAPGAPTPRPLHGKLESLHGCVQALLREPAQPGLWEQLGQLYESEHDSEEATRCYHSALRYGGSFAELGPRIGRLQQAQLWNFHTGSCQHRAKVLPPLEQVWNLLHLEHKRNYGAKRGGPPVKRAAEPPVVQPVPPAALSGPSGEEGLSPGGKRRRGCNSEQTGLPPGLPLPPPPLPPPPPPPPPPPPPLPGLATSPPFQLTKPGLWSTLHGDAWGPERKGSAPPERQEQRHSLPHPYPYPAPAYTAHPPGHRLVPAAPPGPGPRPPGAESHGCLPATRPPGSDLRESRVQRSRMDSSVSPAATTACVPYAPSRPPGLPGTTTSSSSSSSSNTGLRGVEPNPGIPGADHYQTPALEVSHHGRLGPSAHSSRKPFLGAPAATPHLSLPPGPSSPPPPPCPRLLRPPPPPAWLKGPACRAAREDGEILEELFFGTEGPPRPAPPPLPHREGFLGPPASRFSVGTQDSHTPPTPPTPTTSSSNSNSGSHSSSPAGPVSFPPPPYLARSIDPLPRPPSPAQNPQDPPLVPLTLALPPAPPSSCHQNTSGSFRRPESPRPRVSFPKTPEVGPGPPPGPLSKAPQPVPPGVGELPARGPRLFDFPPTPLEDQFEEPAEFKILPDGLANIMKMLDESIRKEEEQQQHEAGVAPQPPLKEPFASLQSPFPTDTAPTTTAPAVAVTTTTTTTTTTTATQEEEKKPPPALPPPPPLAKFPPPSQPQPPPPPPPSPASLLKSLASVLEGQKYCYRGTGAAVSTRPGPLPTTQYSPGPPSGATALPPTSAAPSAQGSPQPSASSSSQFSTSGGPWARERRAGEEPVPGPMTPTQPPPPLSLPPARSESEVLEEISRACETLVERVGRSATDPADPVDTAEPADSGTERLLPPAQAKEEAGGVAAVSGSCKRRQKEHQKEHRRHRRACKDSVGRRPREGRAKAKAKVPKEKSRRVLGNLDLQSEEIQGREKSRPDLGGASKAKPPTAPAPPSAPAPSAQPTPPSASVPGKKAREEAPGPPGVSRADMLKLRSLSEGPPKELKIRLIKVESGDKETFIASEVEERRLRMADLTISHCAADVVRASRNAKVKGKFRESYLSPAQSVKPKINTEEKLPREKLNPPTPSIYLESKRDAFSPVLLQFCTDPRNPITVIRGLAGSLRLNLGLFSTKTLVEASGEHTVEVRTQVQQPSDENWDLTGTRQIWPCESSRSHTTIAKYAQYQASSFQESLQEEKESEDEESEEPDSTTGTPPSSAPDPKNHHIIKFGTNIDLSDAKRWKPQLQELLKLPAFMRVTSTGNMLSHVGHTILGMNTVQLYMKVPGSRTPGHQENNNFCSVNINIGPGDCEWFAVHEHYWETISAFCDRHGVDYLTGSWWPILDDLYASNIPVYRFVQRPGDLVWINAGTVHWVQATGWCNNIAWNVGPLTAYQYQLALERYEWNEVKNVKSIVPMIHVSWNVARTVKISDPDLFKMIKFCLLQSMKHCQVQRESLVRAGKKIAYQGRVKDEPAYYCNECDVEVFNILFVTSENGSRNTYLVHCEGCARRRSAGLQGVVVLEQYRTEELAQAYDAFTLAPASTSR

## NCc1ccc(CNCCCCN(O)C(=O)/C=C/C(=O)O)cc1
[1]
  IC50: 2400 nM
[2]
  IC50: 7300 nM
[3]
  IC50: 420 nM

## O=C(O)/C=C/C(=O)N(O)CCCCNCc1ccc(COC(=O)Nc2cccc3ccccc23)cc1
[1]
  IC50: 3300 nM
[2]
  IC50: 3100 nM

## NCc1ccc(CN(CCCCN(O)C(=O)/C=C/C(=O)O)C(=S)Nc2ccc(-c3c4ccc(=O)cc-4oc4cc(O)ccc34)c(C(=O)O)c2)cc1
[4]
  Activity: Active
[5]
  Kd: 9.3 nM
[6]
  Kd: 19 nM
[7]
  Kd: 8.6 nM
[1]
  IC50: 23500 nM
[2]
  IC50: 9500 nM
[8]
  Kd: 22 nM
[3]
  IC50: 900 nM
[9]
  Activity: Active
